Measured values: patent US10780101B2, “Amide derivatives of squalamine for the treatment of infections” (VIRBAC, priority 2016, dated 2020)
In brackets after ≈: the same amount, converted by molar mass. Like-named read-outs stand apart in the source and are kept apart here.

Assays:
[1] = tested on: S. aureus Human ATCC 25923; assay: MIC determination, S. aureus human ATCC 25923; format: cell-based; details: Staphylococcus aureus, ATCC25923; Gram-positive; Mueller-Hinton medium, 24 h at 37° C.
Experimental: (§1) A negative control (2 mL of sterile culture medium)
(§2) A positive control (1940 μL of culture medium+40 μL of DMSO+20 μL of the bacterial suspension) from a thawed biological strain (the biological strains are stored at −80° C. in glycerol).
(§3) The tubes were incubated at 37° C. for 24 hours at 100 rpm.
(§4) The microorganisms were handled under a type L2 laboratory fume cupboard and, before any handling, a UV cycle was programmed and only sterile material was used. […] The chemical compounds to be tested were prepared in a DMSO/methanol mixture (50/50) at a concentration of 5 mg/mL.
(§5) After 24 hours of incubation, a measurement of the optical density was taken using a spectrophotometer at 600 nm, collecting 100 μL of the bacterial suspension diluted in 900 μL of the sterile culture medium. This test required the use of a 96-well plate and the required volume of the microbial suspension to be seeded was calculated for an OD corresponding to a value equal to 0.01 in each well. In this plate, the first line corresponded to the negative control (195 μL of sterile culture medium in each well), the second line corresponded to the positive control (seeded culture medium supplemented with 2% of DMSO), and the third line was loaded twice with bacterial suspension; 8 μL of test product were placed in each well. Thereafter, a 0.5 cascade dilution was performed from this line.
(§6) The first column served as inhibition control. A sterile filter was then placed on the microplate, allowing the passage of gases but not of contaminants. The microplate was incubated at 37° C. under a humid atmosphere for 24 hours.
(§7) NB: The medium used is Mueller-Hinton (MH) medium for bacteria. All the tests were performed in duplicate.
(§8) After incubation, the filter was replaced with a transparent film, and an OD reading was then taken in an iEMS plate spectrophotometer at 620 nm. Calculation of the minimum inhibitory concentration (MIC) was performed.

[2] = tested on: S. aureus Animal (340); assay: MIC determination, S. aureus animal (340); format: cell-based; details: Staphylococcus aureus; Gram-positive; Mueller-Hinton medium, 24 h at 37° C.
Experimental: as §1, §2, §3, §4, §5, §6, §7, §8

[3] = tested on: S. intermedius Animal (1051997); assay: MIC determination, S. intermedius animal (1051997); format: cell-based; details: Staphylococcus intermedius; Gram-positive; Mueller-Hinton medium, 24 h at 37° C.
Experimental: as §1, §2, §3, §4, §5, §6, §7, §8

[4] = tested on: E. faecalis Human ATCC 29212; assay: MIC determination, E. faecalis human ATCC 29212; format: cell-based; details: Enterococcus faecalis, ATCC29212; Gram-positive; Mueller-Hinton medium, 24 h at 37° C.
Experimental: as §1, §2, §3, §4, §5, §6, §7, §8

[5] = tested on: E. coli Human ATCC 28922; assay: MIC determination, E. coli human ATCC 28922; format: cell-based; details: Escherichia coli, ATCC28922; Gram-negative; Mueller-Hinton medium, 24 h at 37° C.
Experimental: as §1, §2, §3, §4, §5, §6, §7, §8

[6] = tested on: E. coli Animal (1956); assay: MIC determination, E. coli animal (1956); format: cell-based; details: Escherichia coli; Gram-negative; Mueller-Hinton medium, 24 h at 37° C.
Experimental: as §1, §2, §3, §4, §5, §6, §7, §8

[7] = tested on: P. aeruginosa Human ATCC 27853; assay: MIC determination, P. aeruginosa human ATCC 27853; format: cell-based; details: Pseudomonas aeruginosa, ATCC27853; Gram-negative; Mueller-Hinton medium, 24 h at 37° C.
Experimental: as §1, §2, §3, §4, §5, §6, §7, §8

[8] = tested on: P. aeruginosa Animal (1051575); assay: MIC determination, P. aeruginosa animal (1051575); format: cell-based; details: Pseudomonas aeruginosa; Gram-negative; Mueller-Hinton medium, 24 h at 37° C.
Experimental: as §1, §2, §3, §4, §5, §6, §7, §8

[9] = tested on: CHO-K1 cells; assay: WST1 cytotoxicity test on CHO-K1 cells; format: cell-based, Chinese hamster; details: Cricetulus griseus, read-out: IC50 (μg/mL) CHO
Experimental: Test WST1 was used to measure the cytotoxic activity of the products. This is a colorimetric test which makes it possible to measure the viability and the degree of cell proliferation. It is based on cleavage of the colorless tetrazolium salts WST-1 (4-[3-(4-iodophenyl)-2-(4-nitrophenyl)-2H-5-tetrazolio]-1,3-benzene disulfonate) with mitochondrial dehydrogenases to the yellow-colored formazan derivative, which may be quantified by spectrophotometry at 420-480 nm.
The WST1 test was performed on Chinese hamster ovary cells. The CHO-K1 cells (ATCC, USA) are kept in culture in McCoy's 5A medium supplemented with 10% fetal calf serum, 2 mM of L-glutamine and a mixture of penicillin-streptomycin (100 U/ml: 10 μg/ml). The culture is incubated at 37° C. under an atmosphere enriched in CO2 (5%), and subcultured every two days.
The cells are transferred into 96-well plates (25000 cells/mL) in whole McCoy's 5A medium, and maintained for 24 hours at 37° C. under a humid atmosphere enriched in CO2 (5%). Increasing concentrations of test products are added to the wells in double tests and 8 growth controls containing the cells in the medium alone are included in each series of tests. After 24 hours at 37° C. (5% CO2), the culture medium is removed, the cells are rinsed in phosphate buffer (PBS) and 50 μL of PBS containing 10% of reagent WST1 are added to each well. After 20 minutes of incubation at 37° C., the results are read by spectrophotometry at 450 nm.
The results are expressed in dose-response relationships, modeled by nonlinear regression analysis using the TableCurve software. The 50% inhibitory concentration (IC50) represents the concentration of product that is capable of reducing the cell viability by 50%.

[10] = tested on: P. aeruginosa (1051575); assay: Potentiation of erythromycin activity (combination MIC); format: cell-based, Pseudomonas aeruginosa; details: erythromycin 2 μg/mL; concentration of compound required to restore antibiotic activity
Experimental: (§9) This method requires the use of a 96-well plate: 100 μL of a liquid culture medium are placed in each well and then seeded with the microbial suspension prepared previously. The required volume to be seeded is calculated for an OD of 0.01, which corresponds to about 5×10^6 bacteria in each well. In this plate, the first line corresponds to a negative control (200 μL of sterile culture medium in each well), the second line corresponds to a positive control (100 μL of sterile culture medium+100 μL of the bacterial suspension), and the third line contains 192 μL of culture medium; 8 μL of compound of formula (I) to be tested are placed in each well. Thereafter, a cascade dilution is performed from this line. L of a doxycycline solution (1 mg dissolved in 20 mL) are then added to each well of lines 3 to 8 to obtain a final antibiotic concentration of 2 μg/mL. 92 μL of bacterial suspension are then added to lines 3 to 8. The results are read (the determination of the MIC (2 μg/mL of doxycycline) in the presence of X g/mL of compound of formula (I)) after 24 hours of incubation at 37° C. under a humid atmosphere. After 24 hours of incubation at 37° C., 40 μL of nitro tetrazolium iodide are added to each well to reveal the presence of live bacteria by staining the medium pink.
The procedure is identical to that indicated in Example 5 above. 8 μL of an antibiotic solution under consideration (1 mg dissolved in 20 mL) are added to obtain a final antibiotic concentration of 2 μg/mL instead of 8 μL of a doxycycline solution.
(§10) The results are given in table V. They indicate the concentration of compound of formula (I) required to be able to restore the activity of the antibiotic under consideration.

[11] = tested on: P. aeruginosa (1051575); assay: Potentiation of chloramphenicol activity (combination MIC); format: cell-based, Pseudomonas aeruginosa; details: chloramphenicol 2 μg/mL; concentration of compound required to restore antibiotic activity
Experimental: as §9, with “L of a doxycycline solution (1 mg dissolved in 20 mL) are then added to each well of lines 3 to 8 to obtain a final antibiotic concentration of 2 μg/mL.” left out
The procedure is identical to that indicated in Example 5 above. […]
as §10

[12] = tested on: P. aeruginosa (1051575); assay: Potentiation of doxycycline activity (combination MIC); format: cell-based, Pseudomonas aeruginosa; details: in presence of doxycycline 2 μg/mL; 24 hours at 37° C.

CC(C)NC(=O)CC[C@@H](C)[C@H]1CCC2C3C(C[C@H](O)[C@@]21C)[C@@]1(C)CC[C@H](NCCNCCNCCNCCNCCN)CC1C[C@H]3O (stereo partly drawn) [(21), 3β-(pentaethylenehexamine)-N-isopropylcholamide]
MIC [1]: 17 µg/mL (≈ 25.6 µM)
MIC [2]: 17 µg/mL (≈ 25.6 µM)
MIC [3]: 8 µg/mL (≈ 12 µM)
MIC [4]: 30 µg/mL (≈ 45.2 µM)
MIC [5]: 130 µg/mL (≈ 196 µM)
MIC [6]: 30 µg/mL (≈ 45.2 µM)
MIC [7]: 130 µg/mL (≈ 196 µM)
MIC [8]: 30 µg/mL (≈ 45.2 µM)
IC50 ([9]; Table III, WST1 test, CHO-K1 cells, 24 hours): 60 µg/mL (≈ 90.4 µM)
MIC P. aeruginosa (1051575) compound + erythromycin [10]: 30 µg/mL
MIC P. aeruginosa (1051575) compound + chloramphenicol [11]: 8 µg/mL

CC(C)NC(=O)CC[C@@H](C)[C@H]1CCC2C3CCC4C[C@@H](NCCNCCNCCNCCNCCN)CC[C@]4(C)C3C[C@H](O)[C@@]21C (stereo partly drawn) [(20), 3β-(pentaethylenehexamine)-N-isopropyldeoxycholamide]
MIC [1]: 8 µg/mL (≈ 12.3 µM)
MIC [2]: 8 µg/mL (≈ 12.3 µM)
MIC [3]: 4 µg/mL (≈ 6.17 µM)
MIC [4]: 8 µg/mL (≈ 12.3 µM)
MIC [5]: 8 µg/mL (≈ 12.3 µM)
MIC [6]: 16 µg/mL (≈ 24.7 µM)
MIC [7]: 32 µg/mL (≈ 49.4 µM)
MIC [8]: 32 µg/mL (≈ 49.4 µM)
IC50 ([9]; CHO-K1, 24 h): 18 µg/mL (≈ 27.8 µM)
MIC - P. aeruginosa (1051575): content of compound of formula (I) to restore the doxycycline activity (at 2 μg/mL) [12]: 4 µg/mL

CC(C)NC(=O)CC[C@@H](C)[C@H]1CCC2C3CCC4C[C@@H](NCCCNCCCN)CC[C@]4(C)C3CC[C@@]21C (stereo partly drawn) [(18), 3β-norspermidino-N-isopropyllithocholamide]
MIC [1]: 6 µg/mL (≈ 11.3 µM)
MIC [2]: 3 µg/mL (≈ 5.65 µM)
MIC [3]: 0.8 µg/mL (≈ 1.51 µM)
MIC [4]: 12 µg/mL (≈ 22.6 µM)
MIC [5]: 26 µg/mL (≈ 49 µM)
MIC [6]: 3 µg/mL (≈ 5.65 µM)
MIC [7]: 104 µg/mL (≈ 196 µM)
MIC [8]: 26 µg/mL (≈ 49 µM)
IC50 ([9]; CHO-K1, 24 h): 20 µg/mL (≈ 37.7 µM)
MIC - P. aeruginosa (1051575): content of compound of formula (I) to restore the doxycycline activity (at 2 μg/mL) [12]: 0.8 µg/mL
